Assay results taken from the supplement of paper PMC4862054.

How the values were obtained:
[1] = tested on: CAL-85-1; details: 72 h
Summary of the method: (§1)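 Plates of 384 wells holding compound in 5 µl medium received breast cancer cell lines in 20 µl suspension and were incubated 72 h. CellTiter-Blue (2.5 µl, 2 h, 37 °C) was used for viability, read at 560/590 nm, and every plate was normalised to vehicle and a positive kill control and assessed by Z'-factor. The EC50 derives from a percent-inhibition dose-response curve fit censored at the highest concentration, leaving out rows whose drug sensitivity score was zero.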

[2] = tested on: DU-4475; details: 72 h
Summary of the method: as §1

[3] = tested on: HDQ-P1; details: 72 h
Summary of the method: as §1

[4] = tested on: CAL-51; details: 72 h
Summary of the method: as §1

[5] = tested on: CAL-148; details: 72 h
Summary of the method: as §1

[6] = tested on: CAL-120; details: 72 h
Summary of the method: as §1

[7] = tested on: MFM-223; details: 72 h
Summary of the method: as §1

[8] = tested on: HCC1143; details: 72 h
Summary of the method: as §1

[9] = tested on: SK-BR-3; details: 72 h
Summary of the method: as §1

[10] = tested on: MDA-MB-436; details: 72 h
Summary of the method: as §1

[11] = tested on: HCC1937; details: 72 h
Summary of the method: as §1

[12] = tested on: BT-549; details: 72 h
Summary of the method: as §1

[13] = tested on: Hs578T; details: 72 h
Summary of the method: as §1

[14] = tested on: MDA-MB-468; details: 72 h
Summary of the method: as §1

[15] = tested on: MDA-MB-231; details: 72 h
Summary of the method: as §1

[16] = tested on: BT-474; details: 72 h
Summary of the method: as §1

[17] = tested on: HCC1599; details: 72 h
Summary of the method: as §1

[18] = tested on: CAL-120; details: 72 h; remark: listed apart in the source
Protocol: (§2)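 Drug sensitivity and resistance testing (DSRT) of breast cancer cell lines in 384-well plates, 5 concentrations in 10-fold dilutions over a compound-specific 10,000-fold range. After 72 h, cytotoxicity was read by CellTox Green fluorescence and viability by CellTiter-Glo luminescence (multiplexed), normalised to DMSO and benzethonium chloride controls. EC50 is the inflection point of the fitted dose-response curve (bottom asymptote free, so it can be relative for partial curves) and is censored at the highest tested concentration. Rows with DSS 0 (no meaningful response) were excluded.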

[19] = tested on: MFM-223; details: 72 h; remark: listed apart in the source
Protocol: as §2

[20] = tested on: HCC1143; details: 72 h; remark: listed apart in the source
Protocol: as §2

[21] = tested on: CAL-85-1; details: 72 h; remark: listed apart in the source
Protocol: as §2

[22] = tested on: MDA-MB-436; details: 72 h; remark: listed apart in the source
Protocol: as §2

[23] = tested on: Hs578T; details: 72 h; remark: listed apart in the source
Protocol: as §2

[24] = tested on: MCF-10A; details: 72 h
Protocol: as §2

[25] = tested on: CAL-51; details: 72 h; remark: listed apart in the source
Protocol: as §2

[26] = tested on: MDA-MB-468; details: 72 h; remark: listed apart in the source
Protocol: as §2

[27] = tested on: MDA-MB-231; details: 72 h; remark: listed apart in the source
Protocol: as §2

[28] = tested on: BT-474; details: 72 h; remark: listed apart in the source
Protocol: as §2

[29] = tested on: CAL-148; details: 72 h; remark: listed apart in the source
Protocol: as §2

[30] = tested on: MFM-223; details: 72 h; remark: listed apart in the source
Summary of the method: (§3)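 In this assay, breast cancer cell lines spent 72 h with compound at 5 concentrations in 10-fold steps over a compound-specific 10,000-fold range. The first readout was cell death by CellTox Green fluorescence, and the second was viability by CellTiter-Glo luminescence, each normalised per plate to 0.1 % DMSO and a positive kill control. EC50 came from the dose-response curves, censored at the top concentration.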

[31] = tested on: HCC1143; details: 72 h; remark: listed apart in the source
Summary of the method: as §3

[32] = tested on: DU-4475; details: 72 h; remark: listed apart in the source
Summary of the method: as §3

[33] = tested on: HDQ-P1; details: 72 h; remark: listed apart in the source
Summary of the method: as §3

[34] = tested on: HCC1599; details: 72 h; remark: listed apart in the source
Summary of the method: as §3

[35] = tested on: CAL-148; details: 72 h; remark: listed apart in the source
Summary of the method: as §3

[36] = tested on: MFM-223; assay: normalised viability (% of control), CellTiter-Blue; higher = more viable cells (about 100 = DMSO control); details: 1000 nM; incubation time: 72 h
Summary of the method: (§4)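 Each value is normalised viability at a single listed concentration of the series. Breast cancer cell lines in 384-well plates were incubated 72 h with compound and read by CellTiter-Blue fluorescence at 560/590 nm, with vehicle set to 100 and a positive kill control to 0 on every plate.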

[37] = tested on: HCC1143; assay: as above; details: 1000 nM; incubation time: 72 h
Summary of the method: as §4

[38] = tested on: DU-4475; assay: as above; details: 10 nM; incubation time: 72 h
Summary of the method: as §4

[39] = tested on: SK-BR-3; assay: as above; details: 1000 nM; incubation time: 72 h
Summary of the method: as §4

[40] = tested on: BT-549; assay: as above; details: 1000 nM; incubation time: 72 h
Summary of the method: as §4

[41] = tested on: HDQ-P1; assay: as above; details: 10 nM; incubation time: 72 h
Summary of the method: as §4

[42] = tested on: MDA-MB-231; assay: as above; details: 1000 nM; incubation time: 72 h
Summary of the method: as §4

[43] = tested on: CAL-148; assay: as above; details: 10 nM; incubation time: 72 h
Summary of the method: as §4

[44] = tested on: DU-4475; details: 72 h; remark: listed apart in the source
Protocol: as §2

[45] = tested on: HCC1599; details: 72 h; remark: listed apart in the source
Protocol: as §2

## C/C(=C\c1csc(C)n1)[C@@H]1C[C@@H]2O[C@]2(C)CCC[C@H](C)[C@H](O)[C@@H](C)C(=O)C(C)(C)[C@@H](O)CC(=O)O1 [Patupilone]
[1]
  EC50, CellTiter-Blue viability: 1.56 nM
[2]
  EC50, CellTiter-Blue viability: 11.1 nM
[3]
  EC50, CellTiter-Blue viability: 16.5 nM
[4]
  EC50, CellTiter-Blue viability: 11.4 nM
[5]
  EC50, CellTiter-Blue viability: 3.13 nM
[6]
  EC50, CellTiter-Blue viability: 8.13 nM
[7]
  EC50, CellTiter-Blue viability: 13 nM
[8]
  EC50, CellTiter-Blue viability: 9.87 nM
[9]
  EC50, CellTiter-Blue viability: 5.58 nM
[10]
  EC50, CellTiter-Blue viability: 7.26 nM
[11]
  EC50, CellTiter-Blue viability: 2.26 nM
[12]
  EC50, CellTiter-Blue viability: 4.38 nM
[13]
  EC50, CellTiter-Blue viability: 6.7 nM
[14]
  EC50, CellTiter-Blue viability: 2.77 nM
[15]
  EC50, CellTiter-Blue viability: 0.95 nM
[16]
  EC50, CellTiter-Blue viability: 10.9 nM
[17]
  EC50, CellTiter-Blue viability: 211 nM
[18]
  EC50, CellTox Green: 162 nM
[19]
  EC50, CellTox Green: 609 nM
[20]
  EC50, CellTox Green: 596 nM
[21]
  EC50, CellTox Green: 53.3 nM
[22]
  EC50, CellTox Green: 8.93 nM
[23]
  EC50, CellTox Green: 206 nM
[24]
  EC50, CellTox Green: 145 nM
[25]
  EC50, CellTox Green: 2.63 nM
[26]
  EC50, CellTox Green: 1.67 nM
[27]
  EC50, CellTox Green: 136 nM
[28]
  EC50, CellTox Green: 35.1 nM
[29]
  EC50, CellTox Green: 34.8 nM
[30]
  EC50, CellTiter-Glo: 156 nM
[31]
  EC50, CellTiter-Glo: 18.9 nM
[32]
  EC50, CellTiter-Glo: 93.8 nM
[33]
  EC50, CellTiter-Glo: 66.7 nM
[34]
  EC50, CellTiter-Glo: 584 nM
[35]
  EC50, CellTiter-Glo: 30 nM
[36]
  normalised viability: 45.7%
[37]
  normalised viability: 32%
[38]
  normalised viability: 57.5%
[39]
  normalised viability: 15.2%
[40]
  normalised viability: 22.1%
[41]
  normalised viability: 92.5%
[42]
  normalised viability: 30.7%
[43]
  normalised viability: 32.3%

## NS(=O)(=O)OC[C@@H]1C[C@@H](n2ccc3c(N[C@H]4CCc5ccccc54)ncnc32)C[C@@H]1O [Pevonedistat]
[44]
  EC50, CellTox Green: 327 nM
[22]
  EC50, CellTox Green: 1510 nM
[25]
  EC50, CellTox Green: 82.6 nM
[26]
  EC50, CellTox Green: 436 nM
[45]
  EC50, CellTox Green: 1840 nM
[30]
  EC50, CellTiter-Glo: 155 nM
[31]
  EC50, CellTiter-Glo: 845 nM
[32]
  EC50, CellTiter-Glo: 137 nM
[33]
  EC50, CellTiter-Glo: 1560 nM
[34]
  EC50, CellTiter-Glo: 365 nM
